According to BindingDB's records for doi:10.1002/cbic.200300724 (The Scripps Research Institute, 2003):
pIC50, pKi: −log10 of the molar value. Where “and” joins values, the source holds several entries; their conditions need not be identical. Equal entries are not always repeated.

Molecular target: T1, Gag-Pol polyprotein [489-587,G537V,H558K,V571A] (Human immunodeficiency virus, UniProt P12497, G537V/H558K/V571A)
T1 construct: 489-587
Assay: Inhibiton Activity Assay
Procedure: The inhibition activity against HIV-1 PR and three mutants (G48V, V82F, V82A)were done in 96 well microtiter plate and were assayed. Wells that showed 50% inhibition of the enzyme activity were selected and diluted to 10nM and screened again.

| Structure (SMILES) | pIC50 | pKi |
| --- | --- | --- |
| COc1ccc(S(=O)(=O)N(CC(C)C)C[C@@H](O)[C@H](Cc2ccccc2)n2cc(COC(=O)N[C@H]3c4ccccc4C[C@H]3O)nn2)cc1 [HIV-1 PR Inhibitor, compound 6] | 8.22 and 7.72 and 7.41 and 7.34 | – |
| COc1ccc(S(=O)(=O)N(CC(C)C)C[C@@H](O)[C@H](Cc2ccccc2)n2cc(CNC(=O)c3ccc(CNC(=O)OC(C)(C)C)cc3)nn2)cc1 [HIV-1 PR Inhibitor, compound 8] | 7.89 and 7.62 and 7.77 and 7.28 | 8.40 and 7.89 and 8.01 and 7.52 |
